Test results published in patent US8703424B2, “Predicting human developmental toxicity of pharmaceuticals using human stem-like cells and metabolomics” (Stemina Biomarker Discovery, Inc., priority 2010, dated 2014).
Where two headings read alike, the source gives them in different places.

Tests used:
WA09 hESCs = assay: Random forest prediction of teratogenicity from metabolomics of spent media of dosed hESCs; type: cell-based, human
Protocol: WA09 hESCs, obtained from WiCell Research Institute (NIH National Stem Cell Bank, Madison, Wis.) were cultured in 6-well plates on Matrigel (BD Biosciences, San Jose, Calif.), in mTeSR1 medium (Stem Cell Technologies, Vancouver, BC) incubated at 37° C. under 5% CO2 in a Thermo Electron Form a Series II Water Jacket CO2 Incubator. hESCs were passaged every three or four days at a 1:3 or 1:6 seeding density for routine culture conditions. For dosing experiments, hESCs were passaged at a low density of 1:10 or 1:12 so that they would not require passaging during the […] dosing protocol. To passage hES cells, the StemPro® EZPassage™ disposable stem cell passaging tool (Invitrogen, Carlsbad, Calif.) was used to detach the cells from the wells. Detached cells were removed with a pipette and distributed to new Matrigel plates.
These medium controls provided baseline mass spectral data.
The 2.5 mL of spent media per well from Example 1 was added to 1.67 mL acetonitrile to make a 40% acetonitrile solution. The acetonitrile acts to “quench” the spent media sample, slowing or halting many metabolic processes and aiding in precipitation of cellular proteins. Samples were either stored at −80° C. for later analysis, or for immediate analysis, 250 μL of the quenched solution was mixed with 250 μL of water, to a final concentration of 20% acetonitrile, then added to a 3 kDa molecular weight cut-off filter spin column (Microcon YM-3 Centrifugal Filter, Millipore, Billerica, Mass.). Each sample was then centrifuged in an IEC CL31R Multispeed Centrifuge (Thermo Scientific, Waltham, Mass.) at 13,000×g at 4° C. for 200 minutes. Following centrifugation, the flow-through was saved then dried for several hours in a Savant High Capacity Speedvac Plus Concentrator. The concentrated sample was then dissolved in 50 μL of 0.1% formic acid prior to LC-MS analysis.
5 μl of each sample was injected.
Following LC-MS, chromatograms were inspected for reproducibility. LC-MS runs with total ion counts that vary by more than 25% were repeated to ensure that samples could be accurately compared. These runs were then used to create mass features that correspond to molecules detected across the different LC-MS runs. Mass features were extracted from the LC-MS data using MassHunter Qualitative Analysis software (Agilent Technologies). The following criteria were used as general guidelines, however some flexibility and optimization was needed. m/z values within the range of 75-1500, with a charge of +1 or −1, and a centroid height greater than 1000 were used to generate “mass features.” The mass peaks that pass these criteria were used to fit isotope and adduct (Na^+, K^+, and NH4^+) patterns corresponding to individual molecules, and to establish the abundance of each mass feature. The abundance is calculated by MassHunter software as the sum of the isotopic and adduct peaks that correspond to a single molecular feature. After data deconvolution, mass features showing at least two ions (e.g. (M^+H)^+ and (M^+H)^++1 or (M^+H)^+ and (M^+Na)^+) and an abundance value greater than 50000 for positive-ion mode data and 10000 in negative-ion mode data were included in the data set used for binning of the mass features.
Following feature selection by MassHunter, the data was further preprocessed by MassProfiler (Agilent) software which aligns mass features across multiple LC-MS data files. Mass features were generated for data from each drug treatment experiment (dosed and control) using the default alignment settings in MassProfiler with the requirement that a feature be present in at least 80% of the samples in one treatment. The mass feature datasets for each drug treatment experiment were further processed in a global manner using custom analysis scripts executed in the R statistical software environment. […]

hESCs = assay: Arginine / ADMA fold change ratio (integrated EICs) in dosed hESCs vs controls; conditions: for Arg fold change/ADMA fold change: EIC areas, controls vs. dosed
Protocol: All tested chemicals were purchased from Sigma-Aldrich (St. Louis, Mo.). Cells were dosed with drugs at a concentration equivalent to their published serum circulating therapeutic dosages. Dosing was performed on hESCs in 6-well plates in triplicate, i.e. three wells per plate. The plates were dosed in triplicate, so there were a total of nine dosed wells. In parallel, there were nine “control” wells, in which hESCs were cultured with mTeSR1 containing no drug, and three wells containing Matrigel with mTeSR1 medium without hESCs that served as medium controls. Lastly, three wells of dosed medium controls were prepared, containing Matrigel, mTeSR1 and drug, but no hESCs (FIG. 1). These medium controls provided baseline mass spectral data. On the first day of dosage, the determined concentration of drug was dissolved in mTeSR1, and then 2.5 mL of this solution was added to each dosed well of hESCs. Each day, for four days, the medium was removed and new dosed medium was added. On the fourth day, the medium was removed and added to acetonitrile to make a 40% acetonitrile solution, as outlined in the Sample Preparation section below.
Mass spectrometry was performed using an Agilent QTOF LC/MS system consisting of a G6520AA QTOF high resolution mass spectrometer capable of exact mass MS and MS/MS. In order to facilitate separation of small molecules with a wide range of polarity and to allow increased retention of hydrophilic species, Hydrophilic Interaction Liquid Chromatography (Alpert 1990) was employed. Each sample was run for 30 minutes with the gradient shown in Table 3 at a flow rate of 0.5 mL/min, using 0.1% formic acid in water (Solvent A) and 0.1% formic acid in acetonitrile (Solvent B). Electrospray ionization was employed using a dual ESI source, with an Agilent isocratic pump continuously delivering an internal mass reference solution into the source at approx. 0.01 mL/min. The mass range of the instrument was set to 100-1700 Da. A Phenomenex Luna HILIC column with dimensions 3×100 mm 3 μm particle size was used and maintained at 30° C. 5 μl of each sample was injected. Data acquisition was performed with Agilent MassHunter using high-resolution exact mass conditions.
Valproate is known to cause neural tube defects (DiLiberti et al. 1984) while nitric oxide synthase activity is essential for neural tube closure (Nachmany et al. 2006).

[1] = test system: WA09 human embryonic stem (hES) cells; assay: PLS-DA prediction of teratogenicity from secretome of treated hES cells (Example 9); conditions: DevTox pharmaceutical
Source text: (§1) These included 11 known teratogens and 11 known non-teratogens. The current model is based on the mean fold change (treatment versus its associated intra-experimental control) of 15 metabolites common among the secretome of hES cells treated with pharmaceutical agents and unknown chemical compounds.

mES cells = conditions: Nieden et al. 2001; cited from earlier work
[2] = test system: WA09 human embryonic stem (hES) cells
Source text: as §1

[3] = blinded drugs; cited from earlier work
[4] = high dose (H = 10x circulating dose)
[5] = low dose (L = 0.1x circulating dose)

| Arg/ADMA Prediction (hESCs) | Structure (SMILES) | Classification by the hSLC based assay (WA09 hESCs) | Arg fold change/ADMA fold change (hESCs) | % Non (PLS-DA class probability non-teratogen) [1, 4] | % Ter (PLS-DA class probability teratogen) [1, 4] | Confidence (difference between class probabilities) [1, 4] | Prediction [1, 4] | % Non (PLS-DA class probability non-teratogen) [1, 5] | % Ter (PLS-DA class probability teratogen) [1, 5] | Confidence (difference between class probabilities) [1, 5] | Prediction [1, 5] | Correct classification as a teratogen by the EST (mES cells) | Prediction [2] | Predicted teratogenicity (random forest statistical model) (WA09 hESCs; blind study, model trained on TS1, 142 mass features, circulating dose) | Actual teratogenicity [3] |
| --- | --- | --- | --- | --- | --- | --- | --- | --- | --- | --- | --- | --- | --- | --- | --- |
| Ter | O=C1CCC(N2C(=O)c3ccccc3C2=O)C(=O)N1 (stereo not drawn) [Thalidomide] | teratogen | 0.85 | 0.3 | 0.7 | 0.4 | Ter | 0.65 | 0.35 | 0.3 | Non | does not |  |  |  |
|  | Nc1ccn([C@@H]2O[C@H](CO)[C@@H](O)[C@@H]2O)c(=O)n1 [CytosineArabinoside] |  |  |  |  |  |  |  |  |  |  |  | Ter |  |  |
|  | CC1=C(/C=C/C(C)=C/C=C/C(C)=C/CO)C(C)(C)CCC1 [Retinol] |  | 1.03 | 0.65 | 0.35 | 0.3 | Non | 0.75 | 0.25 | 0.5 | Non |  |  | Non | Non |
